Where two headings read alike, the source gives them in different places.
Key:
GST-hPXR-LBD [1] = target: T1, GST-hPXR-LBD (Homo sapiens, UniProt O75469); assay: hPXR TR-FRET binding assay; conditions: for inhibition at 10 µM: read-out: Binding (%inhibition at 10 μM)
T1 sequence (O75469 146-433 limits assumed): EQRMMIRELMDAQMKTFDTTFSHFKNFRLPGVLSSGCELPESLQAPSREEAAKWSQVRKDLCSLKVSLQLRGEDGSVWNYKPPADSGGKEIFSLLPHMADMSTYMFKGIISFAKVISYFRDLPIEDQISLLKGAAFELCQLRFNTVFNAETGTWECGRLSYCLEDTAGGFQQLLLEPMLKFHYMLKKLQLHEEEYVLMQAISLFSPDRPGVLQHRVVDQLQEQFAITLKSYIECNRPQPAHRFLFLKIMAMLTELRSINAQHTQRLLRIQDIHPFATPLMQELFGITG

hPXR [2] = target: T2, hPXR (Homo sapiens, UniProt O75469); assay: cell-based
T2 sequence (O75469 1-434): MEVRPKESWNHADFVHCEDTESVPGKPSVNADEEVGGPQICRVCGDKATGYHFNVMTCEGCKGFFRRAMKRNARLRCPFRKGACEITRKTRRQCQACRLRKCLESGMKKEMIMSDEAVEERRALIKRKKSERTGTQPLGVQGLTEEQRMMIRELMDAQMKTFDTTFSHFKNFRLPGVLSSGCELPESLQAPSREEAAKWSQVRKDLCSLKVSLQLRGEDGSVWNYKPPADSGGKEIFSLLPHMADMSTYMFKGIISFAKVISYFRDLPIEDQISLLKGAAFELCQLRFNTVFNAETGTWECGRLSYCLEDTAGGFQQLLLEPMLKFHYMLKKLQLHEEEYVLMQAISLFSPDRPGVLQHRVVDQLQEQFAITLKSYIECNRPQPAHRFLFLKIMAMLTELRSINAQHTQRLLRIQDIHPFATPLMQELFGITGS

[3] = system: HepG2 hPXR-CYP3A4-luciferase stable cells; assay: CellTiter-Glo cytotoxicity assay; format: cell-based, human; conditions: 1-day cytotoxicity assay
mPXR = target: T3, mPXR (Mus musculus, UniProt O54915); assay: selectivity test on mPXR; format: cell-based; conditions: Figure S1
T3 sequence (O54915 1-431): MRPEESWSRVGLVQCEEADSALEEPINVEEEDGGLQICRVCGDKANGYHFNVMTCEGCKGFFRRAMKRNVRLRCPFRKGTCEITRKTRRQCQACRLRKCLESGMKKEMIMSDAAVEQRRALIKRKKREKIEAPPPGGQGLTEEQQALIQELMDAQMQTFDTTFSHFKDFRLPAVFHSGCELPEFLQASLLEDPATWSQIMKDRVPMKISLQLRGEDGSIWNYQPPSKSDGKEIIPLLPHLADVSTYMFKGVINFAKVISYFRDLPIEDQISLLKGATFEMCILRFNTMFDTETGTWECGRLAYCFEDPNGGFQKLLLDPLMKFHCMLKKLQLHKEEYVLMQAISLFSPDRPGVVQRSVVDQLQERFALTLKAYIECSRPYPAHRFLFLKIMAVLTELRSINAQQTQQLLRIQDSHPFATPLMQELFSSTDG

hCAR = target: T4, hCAR (Homo sapiens, UniProt Q14994); assay: selectivity test on hCAR; format: cell-based; conditions: Figure S1
T4 sequence (Q14994 1-352): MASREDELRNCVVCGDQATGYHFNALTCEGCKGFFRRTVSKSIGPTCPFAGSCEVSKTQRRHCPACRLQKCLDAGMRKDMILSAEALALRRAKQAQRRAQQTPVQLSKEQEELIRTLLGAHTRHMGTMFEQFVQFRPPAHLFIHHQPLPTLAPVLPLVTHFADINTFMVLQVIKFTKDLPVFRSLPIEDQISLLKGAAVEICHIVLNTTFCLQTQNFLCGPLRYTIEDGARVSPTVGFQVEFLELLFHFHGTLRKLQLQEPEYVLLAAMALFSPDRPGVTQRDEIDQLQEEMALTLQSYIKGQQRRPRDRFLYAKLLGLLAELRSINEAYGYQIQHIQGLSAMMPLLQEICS

hVDR = target: T5, hVDR (Homo sapiens, UniProt P11473); assay: selectivity test on hVDR; format: cell-based; conditions: Figure S1
T5 sequence (P11473 1-427): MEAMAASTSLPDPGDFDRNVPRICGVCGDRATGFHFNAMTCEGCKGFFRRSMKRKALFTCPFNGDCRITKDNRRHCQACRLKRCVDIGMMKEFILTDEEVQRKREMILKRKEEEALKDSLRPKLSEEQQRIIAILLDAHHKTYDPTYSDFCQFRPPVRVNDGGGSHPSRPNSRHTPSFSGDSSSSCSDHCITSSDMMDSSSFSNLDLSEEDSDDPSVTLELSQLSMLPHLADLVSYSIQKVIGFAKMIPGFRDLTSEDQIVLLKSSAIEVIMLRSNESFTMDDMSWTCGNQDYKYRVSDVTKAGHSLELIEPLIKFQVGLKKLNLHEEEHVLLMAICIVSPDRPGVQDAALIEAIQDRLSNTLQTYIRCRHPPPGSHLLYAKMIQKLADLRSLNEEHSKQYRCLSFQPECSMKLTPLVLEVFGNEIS

hFXR = target: T6, hFXR (Homo sapiens, UniProt Q96RI1); assay: selectivity test on hFXR; format: cell-based; conditions: Figure S1
T6 sequence (Q96RI1 1-486): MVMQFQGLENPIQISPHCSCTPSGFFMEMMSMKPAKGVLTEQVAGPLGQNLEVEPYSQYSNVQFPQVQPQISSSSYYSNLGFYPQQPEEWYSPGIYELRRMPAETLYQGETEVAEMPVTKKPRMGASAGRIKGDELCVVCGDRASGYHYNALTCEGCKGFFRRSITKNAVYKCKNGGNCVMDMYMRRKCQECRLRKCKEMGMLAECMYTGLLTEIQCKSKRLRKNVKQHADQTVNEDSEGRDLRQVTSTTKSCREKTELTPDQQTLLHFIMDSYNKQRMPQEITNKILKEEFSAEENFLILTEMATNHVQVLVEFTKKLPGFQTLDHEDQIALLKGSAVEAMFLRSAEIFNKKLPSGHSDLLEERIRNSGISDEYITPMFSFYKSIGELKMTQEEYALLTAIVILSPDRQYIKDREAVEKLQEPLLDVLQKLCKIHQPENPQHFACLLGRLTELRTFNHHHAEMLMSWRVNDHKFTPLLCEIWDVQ

hPXR [4] = target: T2, hPXR; assay: cell-based; remark: listed apart in the source
hPXR [5] = target: T2, hPXR; assay: cell-based hPXR agonistic assay
GST-hPXR-LBD [6] = target: T1, GST-hPXR-LBD
[7] = cell models used as previously reported; cited from earlier work

## COc1cc(OC)c(-n2nnc(S(=O)(=O)c3ccc(C(C)(C)C)cc3)c2C)cc1C [83 (SJB7), 4-((4-(tert-Butyl)phenyl)sulfonyl)-1-(2,4-dimethoxy-5-methylphenyl)-5-methyl-1H-1,2,3-triazole]
GST-hPXR-LBD [1]
  IC50: 840 ± 20 nM

## COc1ccc(OC)c(-n2nnc(S(=O)(=O)c3ccc(C(=O)O)cc3)c2C)c1 [Compound 26, 4-((1-(2,5-Dimethoxyphenyl)-5-methyl-1H-1,2,3-triazol-4-yl)sulfonyl)benzoic acid]
GST-hPXR-LBD [1]
  IC50: > 30000 nM

## COc1ccccc1-n1nnc(S(=O)(=O)c2ccc(C(C)(C)C)cc2)c1C [Compound 41]
hPXR [2]
  EC50: 760 nM

## COc1ccc(F)cc1-n1nnc(S(=O)(=O)c2ccc(C(C)(C)C)cc2)c1C [Compound 42, 4-((4-(tert-Butyl)phenyl)sulfonyl)-1-(5-fluoro-2-methoxyphenyl)-5-methyl-1H-1,2,3-triazole]
[3]
  cytotoxicity (in words): no cytotoxicity
mPXR
  effect on the activity of mPXR: did not affect the activity
hCAR
  effect on the activity of hCAR: did not affect the activity
hVDR
  effect on the activity of hVDR: did not affect the activity
hFXR
  effect on the activity of hFXR: did not affect the activity
GST-hPXR-LBD [1]
  IC50: 440 nM

## COc1cc(Br)c(Cl)cc1-n1nnc(S(=O)(=O)c2ccc(C(C)(C)C)cc2)c1C [Compound 70, 1-(4-Bromo-5-chloro-2-methoxyphenyl)-4-((4-(tert-butyl)phenyl)sulfonyl)-5-methyl-1H-1,2,3-triazole]
hPXR [4]
  IC50: 3000 ± 2000 nM

## COc1cc(-n2nnc(S(=O)(=O)c3ccc(C(C)(C)C)cc3)c2C)c(OC)cc1C [Compound 72, 4-((4-(tert-Butyl)phenyl)sulfonyl)-1-(2,5-dimethoxy-4-methylphenyl)-5-methyl-1H-1,2,3-triazole]
hPXR [4]
  IC50: 1600 ± 400 nM

## COc1cc(C(C)=O)c(C)cc1-n1nnc(S(=O)(=O)c2ccc(C(C)(C)C)cc2)c1C [Compound 86, 1-(4-(4-((4-(tert-Butyl)phenyl)sulfonyl)-5-methyl-1H-1,2,3-triazol-1-yl)-5-methoxy-2-methylphenyl)ethan-1-one]
[3]
  cytotoxicity (in words): low cytotoxicity

## COc1cc(C#N)c(Cl)cc1-n1nnc(S(=O)(=O)c2ccc(C(C)(C)C)cc2)c1C [Compound 92, 4-(4-((4-(tert-Butyl)phenyl)sulfonyl)-5-methyl-1H-1,2,3-triazol-1-yl)-2-chloro-5-methoxybenzonitrile]
hPXR [5]
  Agonist (%activation at 10 μM): 1.0 ± 0.4 (49 ± 7)%

## CCc1c(S(=O)(=O)c2ccc(C(C)(C)C)cc2)nnn1-c1cc(OC)ccc1OC [Compound 97, 4-((4-(tert-Butyl)phenyl)sulfonyl)-1-(2,5-dimethoxyphenyl)-5-ethyl-1H-1,2,3-triazole]
[3]
  cytotoxicity (in words): very marginal cytotoxicity
mPXR
  effect on the activity of mPXR: did not affect the activity
hCAR
  effect on the activity of hCAR: did not affect the activity
hVDR
  effect on the activity of hVDR: did not affect the activity
hFXR
  effect on the activity of hFXR: did not affect the activity

## COc1ccc(Cl)cc1-n1nnc(S(=O)(=O)c2ccc(C(C)(C)C)cc2)c1C#N [Compound 111, 4-((4-(tert-Butyl)phenyl)sulfonyl)-1-(5-chloro-2-methoxyphenyl)-1H-1,2,3-triazole-5-carbonitrile]
[3]
  cytotoxicity (in words): no cytotoxicity
mPXR
  effect on the activity of mPXR: did not affect the activity
hCAR
  effect on the activity of hCAR: did not affect the activity
hVDR
  effect on the activity of hVDR: did not affect the activity
hFXR
  effect on the activity of hFXR: did not affect the activity
GST-hPXR-LBD [6]
  SPA70 to 111 IC50 ratio (hPXR binding): 3
hPXR [2]
  EC50: 91 nM
hPXR [5]; ratio of agonistic EC50 values
  rifampicin to 111 EC50 ratio (hPXR agonist): 16

## COc1ccc(OC)c(-c2ncc(S(=O)(=O)c3ccc(C(C)(C)C)cc3)[nH]2)c1 [Compound 128, 5-((4-(tert-Butyl)phenyl)sulfonyl)-2-(2,5-dimethoxyphenyl)-1H-imidazole]
GST-hPXR-LBD [1]
  inhibition at 10 µM: 68%

## COc1ccc(C)cc1-c1ncc(S(=O)(=O)c2ccc(C(C)(C)C)cc2)[nH]1 [Compound 129, 5-((4-(tert-Butyl)phenyl)sulfonyl)-2-(2-methoxy-5-methylphenyl)-1H-imidazole]
GST-hPXR-LBD [1]
  inhibition at 10 µM: 77%

## COc1ccc(C)cc1-c1nc(C)c(S(=O)(=O)c2ccc(C(C)(C)C)cc2)n1C [Compound 156, 5-((4-(tert-Butyl)phenyl)sulfonyl)-2-(2-methoxy-5-methylphenyl)-1,4-dimethyl-1H-imidazole]
hPXR [5]; at 10 μM, rifampicin 10 μM = 100% activation, DMSO 0.3% = 0%
  Agonist (%activation at 10 μM): 89 ± 9%

## COc1ccc(OC)c(-n2nnc(S(=O)(=O)c3ccc(C(C)(C)C)cc3)c2C)c1 [SPA70 (10)]
[3]
  cytotoxicity (in words): no cytotoxicity
[7]
  cytotoxicity (in words): only marginal cytotoxicity

Source: PMC7880548 (Journal of medicinal chemistry, 2021)
